Data published in publication PMC3903614, “Factors That Control the Chemistry of the LOV Domain Photocycle” (PLoS ONE, 2014).

Assays:
Assay in all cases: UV-Vis absorbance of bound flavin, dark recovery after photosaturation
Format in all cases: binding
[1] = biological target: T1, AsLOV2 (A. sativa phot1 LOV2) (Avena sativa, UniProt O49003); conditions: 22 °C; bound chromophore; covalent cysteinyl-C4a photoadduct with C450 in the light, noncovalent in the dark; adduct decay time, not an affinity; Table 1 gives 80 s from earlier work
T1 construct: gene NPH1-1; LOV2 domain with flanking helices, residues 404-560; His6-Gβ1 tag removed by TEV; GEF left on the amino terminus and G on the carboxy terminus; expressed in E. coli BL21(DE3)

[2] = biological target: T2, AsLOV2 (A. sativa phot1 LOV2) (Avena sativa, UniProt O49003, C450V/F494C); conditions: 22 °C; relocated active-site cysteine (C494); covalent photoadduct in the light, <10% bleaching; adduct decay time, not an affinity
T2 construct: gene NPH1-1; LOV2 domain with flanking helices, residues 404-560; His6-Gβ1 tag removed by TEV; GEF left on the amino terminus and G on the carboxy terminus; expressed in E. coli BL21(DE3)
Source text: (§1) UV-Vis absorbance of bound flavin, dark recovery after photosaturation on AsLOV2 (A. sativa phot1 LOV2)

[3] = biological target: T3, AsLOV2 (A. sativa phot1 LOV2) (Avena sativa, UniProt O49003, Q513L); conditions: 22 °C; bound chromophore; covalent photoadduct with C450 in the light; adduct decay time, not an affinity
T3 construct: gene NPH1-1; LOV2 domain with flanking helices, residues 404-560; His6-Gβ1 tag removed by TEV; GEF left on the amino terminus and G on the carboxy terminus; expressed in E. coli BL21(DE3)
Source text: as §1

[4] = biological target: T4, AsLOV2 (A. sativa phot1 LOV2) (Avena sativa, UniProt O49003, N414A); conditions: 22 °C; bound chromophore; covalent photoadduct with C450 in the light; adduct decay time, not an affinity
T4 construct: gene NPH1-1; LOV2 domain with flanking helices, residues 404-560; His6-Gβ1 tag removed by TEV; GEF left on the amino terminus and G on the carboxy terminus; expressed in E. coli BL21(DE3)
Source text: as §1

[5] = biological target: T5, AsLOV2 (A. sativa phot1 LOV2) (Avena sativa, UniProt O49003, N414D); conditions: 22 °C; bound chromophore; covalent photoadduct with C450 in the light; adduct decay time, not an affinity
T5 construct: gene NPH1-1; LOV2 domain with flanking helices, residues 404-560; His6-Gβ1 tag removed by TEV; GEF left on the amino terminus and G on the carboxy terminus; expressed in E. coli BL21(DE3)
Source text: as §1

[6] = biological target: T6, AsLOV2 (A. sativa phot1 LOV2) (Avena sativa, UniProt O49003, N414Q); conditions: 22 °C; bound chromophore; covalent photoadduct with C450 in the light; adduct decay time, not an affinity
T6 construct: gene NPH1-1; LOV2 domain with flanking helices, residues 404-560; His6-Gβ1 tag removed by TEV; GEF left on the amino terminus and G on the carboxy terminus; expressed in E. coli BL21(DE3)
Source text: as §1

[7] = biological target: T7, AsLOV2 (A. sativa phot1 LOV2) (Avena sativa, UniProt O49003, F494C); conditions: 22 °C; bound chromophore; covalent photoadduct with C450 in the light; adduct decay time, not an affinity
T7 construct: gene NPH1-1; LOV2 domain with flanking helices, residues 404-560; His6-Gβ1 tag removed by TEV; GEF left on the amino terminus and G on the carboxy terminus; expressed in E. coli BL21(DE3)
Source text: as §1

[8] = biological target: T8, AsLOV2 (A. sativa phot1 LOV2) (Avena sativa, UniProt O49003, N414L); conditions: 22 °C; bound chromophore; covalent photoadduct with C450 in the light; adduct decay time, not an affinity
T8 construct: gene NPH1-1; LOV2 domain with flanking helices, residues 404-560; His6-Gβ1 tag removed by TEV; GEF left on the amino terminus and G on the carboxy terminus; expressed in E. coli BL21(DE3)
Source text: as §1

[9] = biological target: T9, AsLOV2 (A. sativa phot1 LOV2) (Avena sativa, UniProt O49003, N414G); conditions: 22 °C; bound chromophore; covalent photoadduct with C450 in the light; adduct decay time, not an affinity
T9 construct: gene NPH1-1; LOV2 domain with flanking helices, residues 404-560; His6-Gβ1 tag removed by TEV; GEF left on the amino terminus and G on the carboxy terminus; expressed in E. coli BL21(DE3)
Source text: as §1

[10] = biological target: T10, AsLOV2 (A. sativa phot1 LOV2) (Avena sativa, UniProt O49003, Q513D); conditions: 22 °C; bound chromophore; covalent photoadduct with C450 in the light; adduct decay time, not an affinity
T10 construct: gene NPH1-1; LOV2 domain with flanking helices, residues 404-560; His6-Gβ1 tag removed by TEV; GEF left on the amino terminus and G on the carboxy terminus; expressed in E. coli BL21(DE3)
Source text: as §1

T10 sequence (O49003 entry or part of it Q513D): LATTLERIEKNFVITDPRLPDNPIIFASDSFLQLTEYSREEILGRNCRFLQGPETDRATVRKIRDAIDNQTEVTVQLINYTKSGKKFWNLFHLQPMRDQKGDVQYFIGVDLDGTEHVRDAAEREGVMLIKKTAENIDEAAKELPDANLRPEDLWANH
T7 sequence (O49003 entry or part of it F494C): as the sequence (O49003 entry or part of it Q513D) above, with F91C, D110Q counted along it
T4 sequence (O49003 entry or part of it N414A): as the sequence (O49003 entry or part of it Q513D) above, with N11A, D110Q counted along it
T9 sequence (O49003 entry or part of it N414G): as the sequence (O49003 entry or part of it Q513D) above, with N11G, D110Q counted along it
T8 sequence (O49003 entry or part of it N414L): as the sequence (O49003 entry or part of it Q513D) above, with N11L, D110Q counted along it
T3 sequence (O49003 entry or part of it Q513L): as the sequence (O49003 entry or part of it Q513D) above, with D110L counted along it
T6 sequence (O49003 entry or part of it N414Q): as the sequence (O49003 entry or part of it Q513D) above, with N11Q, D110Q counted along it
T2 sequence (O49003 entry or part of it C450V/F494C): as the sequence (O49003 entry or part of it Q513D) above, with C47V, F91C, D110Q counted along it
T1 sequence (O49003 entry or part of it): as the sequence (O49003 entry or part of it Q513D) above, with D110Q counted along it
T5 sequence (O49003 entry or part of it N414D): as the sequence (O49003 entry or part of it Q513D) above, with N11D, D110Q counted along it

## Cc1cc2nc3c(=O)[nH]c(=O)nc-3n(C[C@H](O)[C@H](O)[C@H](O)COP(=O)(O)O)c2cc1C [FMN, flavin mononucleotide]
[1]
  τFMN: 81 ± 2 s
[2]
  τFMN: 69 s
[3]
  τFMN: 1793 s
[4]
  τFMN: 1427 s
[5]
  τFMN: 69 s
[6]
  τFMN: 280 s
[7]
  τFMN: 282 s
[8]
  τFMN: 1847 s
[9]
  τFMN: 615 s
[10]
  τFMN: 5 s
